Patent publication US9096544B2, “Therapeutic compounds” (Wayne State University, priority 2009, dated 2015)

What was measured:
Assay type in all cases: cell-based
MiaPaCa-2 cells = assay: Test I: apoptosis of MiaPaCa-2 pancreatic cancer cells (Annexin V-FITC/PI); settings: 1 μM, 72 h
Description: (§1) Pancreatic cancer cell lines (COLO357, PANC-1, Capan-2, AsPc-1 cells and MiaPaCa-2 cells obtained from American Type Culture Collection; ATCC, Rockville, Md.) were treated with 1 μM 3-Cl-AHPC and compound 16 for various times. Apoptosis in cells were analyzed by flow cytometry using Annexin V-FITC binding together with propidium iodide (PI) staining (Annexin V-FITC apoptosis Detection Kit 1, BD Biosciences, San Diego, Calif.). Data acquisition was done on a FACS Calibur flow cytometer (BD) and analyzed with CellQuest software (BD Biosciences). 3-Cl-AHPC and compound 16 mediated inhibition of cell growth were determined by 3-(4,5-dimethylthiazol-2-yl)-2,5-diphenyltetrazolium bromide (MTT) assay. The cells were seeded on 96-well plates at a density of 4×10^4 cells/well in a volume of 200 μl culture medium. 1 μM AHP3 and 3-Cl-AHPC in DMSO (final concentration 0.1%) were added to the cells for various times. […] After discarding the medium, MTT precipitates were solubilized with 200 μl DMSO and the plates read on a BioTeK Synergy HT (BioTeK Instrument Inc., Vermont) at an absorbance 570 nm. […] The spheroids were stained with acridine orange/ethidium bromide staining and immediately visualized and photographed with fluorescence microscope (OLYMPUS CKX41). […] Then spheroids were visualized and photographed with a fluorescence microscope.

PANC-1 cells [1] = assay: Test I: apoptosis of PANC-1 pancreatic cancer cells (Annexin V-FITC/PI); settings: 1 μM, 48 h
Description: as §1

TF(v-SRC) cells = assay: Test B: apoptosis of TF(v-SRC) cells (acridine orange/ethidium bromide, nuclear fragmentation); settings: nuclear fragmentation, FIG. 2A/B (96 h), read-out: ED50 of apoptosis induction
Description: FIG. 2 illustrates apoptosis induction in FFMA-AML and TF(v-SRC) cells by 3-Cl-AHPC and compound 16. Cells were seeded at 1×10^4 cells/ml, grown for 24 h and then exposed to 1 μM compound 16 or 3-Cl-AHPC A) at various concentrations of the compound for 96 h and B) for increasing times of exposure. C) Induction of apoptosis by 3-Cl-AHPC, all-trans-retinoic acid, 9-cis-retinoic acid and TTNPB in FFMA-AML and TF(v-SRC) cells. The percentage of apoptotic cells was determined using acridine orange and ethidium bromide staining to determine nuclear fragmentation as described in the general biochemical and pharmacological materials and methods. The error bars represent the mean of three separate determinations +/− the standard deviation (SD).
FFMA-AML cells were obtained from a patient with a diagnosis of AML as indicated by the immunophenotyping described in Table 1. This patient was refractory to the chemotherapy regimens consisting of cytosine arabinoside given with daunomycin as well as high-dose cytosine arabinoside. Peripheral blood samples were obtained from the patient utilizing a Wayne State University Institutional Review Board approved protocol and the leukemic blasts were isolated utilizing Ficoll hypaque. The isolated leukemic cells (representing >99% of the cells) were subsequently cultured in RPMI 1640 supplemented with 10% heat-inactivated fetal bovine serum (FBS) and growth factors interleukin 3 (IL-3), granulocyte-colony stimulating factor (G-CSF), granulocyte/macrophage colony-stimulating factor (GM-CSF), and stem cell factor (SCF) as we have previously reported, and then the cells were maintained in 10% FBS and gentamycin (Zhang Y. et al., Blood, 2003; […]:3743-3752). The TF(v-SRC) leukemia cells have been previously described (Black J. H. et al., Leukemia. 2003; 17:155-159). TF(v-SRC) cells were grown in RPMI 1640 supplemented with 10% heat inactivated FBS.
Apoptosis of cells was determined by (1) acridine orange and ethidium bromide-staining to assess cells with nuclear fragmentation and chromatin condensation as previously described (Farhana L. et al., Cancer Res. 2006; 65:4909-4917) and (2) flow cytometry assessing Annexin V-FITC binding together with propidium iodide staining (Annexin V-FITC apoptosis Detection kit 1, BD Biosciences, San Diego, Calif.). Data acquisition was done on a FACS Calibur flow cytometer (BD) and analyzed with CellQuest software.
Cells were grown in the presence and absence of increasing concentrations of either 3-Cl-AHPC or compound 16 and for varying periods of time. There was a progressive increase in 3-Cl-AHPC- and compound 16-mediated apoptosis in both FFMA-AML and TF(v-SRC) cells with time and with increasing concentrations of the compounds. […] We therefore tested the sensitivity of FFMA-AML and TF(v-SRC) cells to apoptosis induction by tRA, 9-cis RA, and TTNPB (FIG. 2C).

PANC-1 cells [2] = assay: Test I: growth inhibition of PANC-1 cells (MTT); settings: 1 μM
Description: as §1

O=C(O)C=Cc1ccc(-c2ccc(O)c(C34CC5CC(CC(C5)C3)C4)c2)c(Cl)c1 [Compound 3-Cl-AHPC, 4-[3-(1-adamantyl)-4-hydroxyphenyl]-3-chlorocinnamic acid, reference compound]
induction of apoptosis (MiaPaCa-2 cells): Apoptosis was also noted
cells in which induction of apoptosis was noted (PANC-1 cells [1]): 50%
EC50 (TF(v-SRC) cells): 750 nM
inhibition of growth (PANC-1 cells [2]): significant inhibition of growth

O=C(O)/C=C/c1cnc(-c2ccc(O)c(C34CC5CC(CC(C5)C3)C4)c2)nc1 [Compound 16, (E)-3-[2-(3-(1-Adamantyl)-4-hydroxyphenyl)-5-pyrimidinyl]-2-propenoic acid]
induction of apoptosis (MiaPaCa-2 cells): Apoptosis was also noted
cells in which induction of apoptosis was noted (PANC-1 cells [1]): 50%
EC50 (TF(v-SRC) cells): 750 nM
inhibition of growth (PANC-1 cells [2]): significant inhibition of growth
